The subject of the data set is rodent lifetime carcinogenesis bioassay, tumor incidence TD50. Kind of data set: chronic cancer bioassays in animals – CPDB, compiled studies (AID 1745844).

The structures appear in SMILES notation. Calls of active or inactive are those of the source. The rule behind the calls is not given here.

For the compound `CCCCNN`, the TD50 was 50.6 mg/kg/day (mouse, strain Swiss albino, females, in drinking water, site: lung, lesion: adenocarcinoma, dosed 119 weeks, study length 119 weeks); 19.3 mg/kg/day (mouse, strain Swiss albino, females, in drinking water, site: lung, lesion: adenoma, dosed 119 weeks, study length 119 weeks); 18.4 mg/kg/day (mouse, strain Swiss albino, females, in drinking water, site: lung, lesion: several types, types named in the paper, dosed 119 weeks, study length 119 weeks); 8.4 mg/kg/day (mouse, strain Swiss albino, males, in drinking water, site: lung, lesion: adenoma, dosed 100 weeks, study length 100 weeks); 9.03 mg/kg/day (mouse, strain Swiss albino, males, in drinking water, site: lung, lesion: several types, types named in the paper, dosed 100 weeks, study length 100 weeks).
`NC(=S)Nc1cccc2ccccc12`: the carcinogen call reads like this: (mouse, strain B6AKF1, females, oral dosing, site: any site (literature study), lesion: several types, types named in the paper, dosed 76 weeks, study length 76 weeks) “negative (inactive)”; (mouse, strain B6AKF1, females, oral dosing, site: liver, lesion: hepatoma, dosed 76 weeks, study length 76 weeks) “negative (inactive)”; (mouse, strain B6AKF1, females, oral dosing, site: lung, lesion: adenoma, dosed 76 weeks, study length 76 weeks) “negative (inactive)”; (mouse, strain B6AKF1, males, oral dosing, site: any site (literature study), lesion: several types, types named in the paper, dosed 76 weeks, study length 76 weeks) “negative (inactive)”; (mouse, strain B6AKF1, males, oral dosing, site: liver, lesion: hepatoma, dosed 76 weeks, study length 76 weeks) “negative (inactive)”; (mouse, strain B6AKF1, males, oral dosing, site: lung, lesion: adenoma, dosed 76 weeks, study length 76 weeks) “negative (inactive)”. For the same compound, the carcinogen call by setting is: (mouse, strain B6C3F1, females, oral dosing, site: liver, lesion: hepatoma, dosed 76 weeks, study length 76 weeks) “negative (inactive)”; (mouse, strain B6C3F1, females, oral dosing, site: lung, lesion: several types, types named in the paper, dosed 76 weeks, study length 76 weeks) “negative (inactive)”; (mouse, strain B6C3F1, males, oral dosing, site: liver, lesion: hepatoma, dosed 76 weeks, study length 76 weeks) “negative (inactive)”. The TD50 reads like this: (mouse, strain B6C3F1, females, oral dosing, site: any site (literature study), lesion: several types, types named in the paper, dosed 76 weeks, study length 76 weeks) 5.34 mg/kg/day (inactive); (mouse, strain B6C3F1, males, oral dosing, site: any site (literature study), lesion: several types, types named in the paper, dosed 76 weeks, study length 76 weeks) 0.7 mg/kg/day (inactive); (mouse, strain B6C3F1, males, oral dosing, site: lung, lesion: adenoma, dosed 76 weeks, study length 76 weeks) 1.27 mg/kg/day (inactive).
With `CC(C)(C)NCC(O)c1cc(O)cc(O)c1` (stereo not drawn), where the note is “rat, strain Charles River CD (Sprague-Dawley), females, in feed, site: mesovarium, lesion: leiomyoma, dosed 104 weeks, study length 104 weeks”, the TD50 was 410 mg/kg/day.
As for `Nc1c(Cl)c(Cl)nc(C(=O)O)c1Cl`, the carcinogen call is “negative (inactive)” (mouse, strain B6C3F1, females, in feed, site: any site (literature study), lesion: several types, types named in the paper, dosed 80 weeks, study length 90 weeks); “negative (inactive)” (mouse, strain B6C3F1, males, in feed, site: any site (literature study), lesion: several types, types named in the paper, dosed 80 weeks, study length 90 weeks); “negative (inactive)” (rat, strain Fischer 344, females, in feed, site: thyroid gland, lesion: parafollicular-cell adenoma, dosed 104 weeks, study length 104 weeks); “negative (inactive)” (rat, strain Osborne-Mendel, females, in feed, site: any site (literature study), lesion: several types, types named in the paper, dosed 80 weeks, study length 113 weeks). In addition, the TD50 is, setting by setting: (mouse, strain B6C3F1, females, in feed, site: liver, lesion: hepatocellular adenoma + hepatocellular carcinoma + neoplastic nodule, dosed 80 weeks, study length 90 weeks) 20100 mg/kg/day; (rat, strain Fischer 344, females, in feed, site: liver, lesion: hepatocellular adenoma, dosed 104 weeks, study length 104 weeks) 15800 mg/kg/day (inactive); (rat, strain Fischer 344, males, in feed, site: liver, lesion: hepatocellular adenoma, dosed 104 weeks, study length 104 weeks) 5560 mg/kg/day (inactive); (rat, strain Fischer 344, males, in feed, site: liver, lesion: hepatocellular carcinoma, dosed 104 weeks, study length 104 weeks) 8710 mg/kg/day (inactive); (rat, strain Osborne-Mendel, females, in feed, site: liver, lesion: hepatocellular adenoma + hepatocellular carcinoma + neoplastic nodule, dosed 80 weeks, study length 113 weeks) 1640 mg/kg/day; (rat, strain Osborne-Mendel, females, in feed, site: liver, lesion: neoplastic nodule, dosed 80 weeks, study length 111 weeks) 1700 mg/kg/day. Moreover, the TD50 was 2930 mg/kg/day (inactive) (rat, strain Osborne-Mendel, males, in feed, site: any site (literature study), lesion: several types, types named in the paper, dosed 80 weeks, study length 113 weeks) and 1320 mg/kg/day (rat, strain Osborne-Mendel, males, in feed, site: liver, lesion: hepatocellular adenoma + hepatocellular carcinoma + neoplastic nodule, dosed 80 weeks, study length 113 weeks).
Consider `C=CC(OC(C)=O)c1ccc2c(c1)OCO2` (stereo not drawn), for which the TD50 by setting is: (rat, strain Charles River CD (Sprague-Dawley), males, in feed, site: any site (literature study), lesion: several types, types named in the paper, dosed 36 weeks, study length 52 weeks) 21.1 mg/kg/day; (rat, strain Charles River CD (Sprague-Dawley), males, in feed, site: any site (literature study), lesion: several types, types named in the paper, dosed 47 weeks, study length 69 weeks) 32.4 mg/kg/day; (rat, strain Charles River CD (Sprague-Dawley), males, in feed, site: forestomach, lesion: papilloma, dosed 36 weeks, study length 52 weeks) 21.1 mg/kg/day; (rat, strain Charles River CD (Sprague-Dawley), males, in feed, site: forestomach, lesion: papilloma, dosed 47 weeks, study length 69 weeks) 30.7 mg/kg/day; (rat, strain Charles River CD (Sprague-Dawley), males, in feed, site: liver, lesion: hepatocellular carcinoma, dosed 36 weeks, study length 52 weeks) 348 mg/kg/day (inactive). In addition, for the setting “rat, strain Charles River CD (Sprague-Dawley), males, in feed, site: liver, lesion: carcinoma, dosed 47 weeks, study length 69 weeks”, the carcinogen call is “negative (inactive)”.
On to `CCCCCCCCCCCN(C)N=O`, for which the TD50 was 15.4 mg/kg/day (rat, strain Fischer 344, males, by gavage, site: esophagus, lesion: squamous-cell carcinoma, dosed 30 weeks, study length 65 weeks); 3.18 mg/kg/day (rat, strain Fischer 344, males, by gavage, site: liver, lesion: cholangiocarcinoma, dosed 30 weeks, study length 65 weeks); 2.38 mg/kg/day (rat, strain Fischer 344, males, by gavage, site: liver, lesion: hepatocellular carcinoma, dosed 30 weeks, study length 65 weeks); 2.41 mg/kg/day (rat, strain Fischer 344, males, by gavage, site: lung, lesion: alveolar adenoma, dosed 30 weeks, study length 65 weeks); 4.99 mg/kg/day (rat, strain Fischer 344, males, by gavage, site: lung, lesion: alveolar-cell adenoma, dosed 30 weeks, study length 65 weeks); 2.37 mg/kg/day (rat, strain Fischer 344, males, by gavage, site: lung, lesion: squamous-cell carcinoma, dosed 30 weeks, study length 65 weeks). The compound also had a TD50 (rat, strain Fischer 344, males, by gavage, site: stomach, nonglandular, lesion: papilloma, dosed 30 weeks, study length 65 weeks) of 15.4 mg/kg/day.
`CC1CN(N=O)C(=O)O1` (stereo not drawn): the TD50 (hamster, strain Syrian Golden, females, by gavage, site: forestomach, lesion: several types, types named in the paper, dosed 28 weeks, study length 60 weeks) is 0.172 mg/kg/day.
Regarding `CCN(CC)C(=S)S[Se](SC(=S)N(CC)CC)(SC(=S)N(CC)CC)SC(=S)N(CC)CC`, the TD50 is, setting by setting: (mouse, strain B6AKF1, females, oral dosing, site: any site (literature study), lesion: several types, types named in the paper, dosed 81 weeks, study length 81 weeks) 10.5 mg/kg/day; (mouse, strain B6AKF1, males, oral dosing, site: any site (literature study), lesion: several types, types named in the paper, dosed 81 weeks, study length 81 weeks) 8.45 mg/kg/day; (mouse, strain B6AKF1, males, oral dosing, site: liver, lesion: hepatoma, dosed 81 weeks, study length 81 weeks) 10.2 mg/kg/day; (mouse, strain B6AKF1, males, oral dosing, site: lung, lesion: adenoma, dosed 81 weeks, study length 81 weeks) 18.4 mg/kg/day; (mouse, strain B6C3F1, females, oral dosing, site: any site (literature study), lesion: several types, types named in the paper, dosed 81 weeks, study length 81 weeks) 3.46 mg/kg/day; (mouse, strain B6C3F1, females, oral dosing, site: liver, lesion: hepatoma, dosed 81 weeks, study length 81 weeks) 7.76 mg/kg/day. The TD50 (mouse, strain B6C3F1, males, oral dosing, site: any site (literature study), lesion: several types, types named in the paper, dosed 81 weeks, study length 81 weeks) was determined as 0.638 mg/kg/day; the TD50 (mouse, strain B6C3F1, males, oral dosing, site: liver, lesion: hepatoma, dosed 81 weeks, study length 81 weeks) is 1.49 mg/kg/day; the TD50 (mouse, strain B6C3F1, males, oral dosing, site: liver, lesion: several types, types named in the paper, dosed 81 weeks, study length 81 weeks) is 1.28 mg/kg/day.
